According to patent US12161608B2, “Methods of preventing and treating health conditions using cannabinoid anions” (NATURAL EXTRACTION SYSTEMS, LLC, priority 2019, dated 2024):

Columns and labels:
[1] = system: individual with hip pain and lower back pain associated with spinal fusion surgery; experiment: Treatment of post laminectomy syndrome; type: in vivo, human; details: glycerol tincture, ingested, self-report
Description: An individual with hip pain and lower back pain associated with spinal fusion surgery was administered a glycerol tincture containing the cannabidiol anion.

[2] = system: individual with knee pain associated with inflammation caused by trauma from a fall; experiment: Treatment of knee pain; type: in vivo, human; details: glycerol tincture, ingested; self-report of one individual
Description: An individual who presented with knee pain associated with inflammation caused by trauma from a fall was administered a glycerol tincture containing the cannabidiol anion.

[3] = system: individual with hip pain associated with sitting; experiment: Treatment of chronic hip pain; type: in vivo, human; details: glycerol tincture, ingested; self-report of one individual
Description: An individual who presented with hip pain associated with sitting was administered a glycerol tincture containing the cannabidiol anion.

[4] = system: individual with anxiety; experiment: Treatment of anxiety; type: in vivo, human
Description: An individual was administered a beverage containing the cannabidiol anion prior to driving to an airport to catch a flight that was scheduled to leave within thirty minutes of the arrival at the airport.
An individual who suffers from chronic anxiety was administered a glycerol tincture containing the cannabigerol anion.

[5] = system: dog that suffers from chronic seizures; experiment: Treatment of epilepsy; type: in vivo; details: report of the dog's owners
Description: A dog that suffers from chronic seizures was administered a glycerol tincture containing the cannabidiol anion immediately after the onset of a seizure.

[6] = system: individual with social anxiety associated with presenting at business meetings; experiment: Treatment of social anxiety; type: in vivo, human; details: beverage given before presenting at a business meeting; self-report
Description: An individual who presented with social anxiety associated with presenting at business meetings was administered a beverage containing the cannabidiol anion before presenting.

[7] = system: individual with cramping and restless legs syndrome; experiment: Treatment of cramping and restless legs syndrome; type: in vivo, human; details: glycerol tincture before sleep; self-report of one individual
Description: An individual who presented with cramping and restless legs syndrome was administered a glycerol tincture containing the cannabidiol anion before sleep.

[8] = system: individual with arthritis; experiment: Treatment of arthritis; type: in vivo, human; details: glycerol tincture; self-report of one individual
Description: An individual who was unable to fill […] hydroxychloroquine prescription to treat the arthritis during the COVID-19 pandemic was administered a glycerol tincture containing the cannabidiol anion.

[9] = system: individual with cancer pain caused by throat cancer; experiment: Treatment of cancer pain; type: in vivo, human; details: water containing the anion, ingested; self-report of one individual
Description: An individual who presented with cancer pain caused by throat cancer was administered water containing the cannabidiol anion (2-[6-isopropenyl-3-methylcyclohex-2-en-1-yl]-3-hydroxy-5-pentylphenolate).

[10] = system: individual with chronic pain; experiment: Treatment of chronic pain; type: in vivo, human; details: glycerol tincture; self-report of one individual
Description: An individual who presented with chronic pain was administered a glycerol tincture containing the cannabidiol anion.

[11] = system: individual with chronic back pain associated with standing; experiment: Treatment of chronic back pain; type: in vivo, human; details: glycerol tincture, ingested; self-report of one individual
Description: An individual who presented with chronic back pain associated with standing was administered a glycerol tincture containing the cannabidiol anion.

[12] = system: individual with back pain associated with driving for prolonged periods of time; experiment: Treatment of acute back pain; type: in vivo, human; details: glycerol tincture, ingested; self-report of one individual
Description: An individual who presented with back pain associated with driving for prolonged periods of time was administered a glycerol tincture containing the cannabidiol anion.

[13] = system: individual with Inflammatory Bowel Disease; experiment: Treatment of Inflammatory Bowel Disease; type: in vivo, human; details: glycerol tincture; self-report of one individual
Description: An individual who presented with Inflammatory Bowel Disease was administered a glycerol tincture containing the cannabigerol anion.

[14] = system: individual with Crohn's disease; experiment: Treatment of Crohn's disease; type: in vivo, human; details: glycerol tincture; self-report of one individual
Description: An individual who presented with Crohn's disease was administered a glycerol tincture containing the cannabigerol anion.

[15] = system: individual with chronic insomnia; experiment: Treatment of insomnia; type: in vivo, human; details: glycerol tincture before sleep; self-report of one individual
Description: An individual who presented with chronic insomnia was administered a glycerol tincture containing the cannabigerol anion before sleep.

| Compound | reported effect on hip pain and lower back pain [1] | reported effect on mobility and knee pain [2] | reported effect on hip pain [3] | reported anxiety during a drive to an airport ([4]; beverage given prior to driving, self-report of one individual) | effect on seizures ([5]; glycerol tincture immediately after the onset of a seizure) | effect on quality of life ([5]; glycerol tincture) | reported effect on social anxiety and performance [6] | reported effect on sleep quality [7] | reported effectiveness at treating arthritis compared with hydroxychloroquine [8] | reported effect on throat pain [9] | reported effect in chronic pain (standard of living) [10] | reported effect on chronic back pain [11] | reported effect on back pain [12] | reported effect on chronic anxiety symptoms ([4]; glycerol tincture, individual who suffers from chronic anxiety, self-report) | reported effect on symptoms of Inflammatory Bowel Disease [13] | reported effect on symptoms of Crohn's disease [14] | reported effect on onset and quality of sleep [15] |
| --- | --- | --- | --- | --- | --- | --- | --- | --- | --- | --- | --- | --- | --- | --- | --- | --- | --- |
| C=C(C)C1CCC(C)=CC1c1c(O)cc(CCCCC)cc1O (centres unmarked) [cannabidiol anion, 2-[6-isopropenyl-3-methylcyclohex-2-en-1-yl]-3-hydroxy-5-pentylphenolate] | notable alleviation of hip pain and lower back pain within minutes of ingestion | improved mobility and alleviation of knee pain within minutes of ingestion | notable alleviation of the hip pain within minutes of ingestion | notable absence of anxiety | both instantaneously and consistently arrested multiple seizures in the dog | significantly improved the dog's quality of life | reduced anxiety and improved performance during the business meeting | significant improvement in sleep quality | more effective at treating their arthritis than hydroxychloroquine | notable alleviation of throat pain within minutes of ingestion | significant improvement in their standard of living | notable alleviation of the back pain within minutes of ingestion | notable alleviation of the back pain within minutes of ingestion | – | – | – | – |
| CCCCCc1cc(O)c(CC=C(C)CCC=C(C)C)c(O)c1 [cannabigerol anion, 2-[3,7-dimethylocta-2,6-diene-1-yl]-3-hydroxy-5-pentylphenolate] | – | – | – | – | – | – | – | – | – | – | – | – | – | significant improvement in their anxiety symptoms | significant improvement in their symptoms of Inflammatory Bowel Disease | significant improvement in their symptoms of Crohn's disease | significant improvement in the onset and quality of their sleep |
